Measurements published in patent US20250241898A1, “Topical Benzimidazole Formulations and Methods for Use in Treating Inflammatory Dermatoses” (JJR&D, LLC, priority 2022, published 2025).

Test system: CTLL-2 (ATCC TIB-214) cytotoxic T lymphocytes
Assay: In vitro screening platform for immunomodulation, CTLL-2 T-lymphocyte density
Assay type: cell-based
Procedure: An in vitro screening platform for immunomodulation was used to evaluate mebenzadole for efficacy. CTLL-2 (ATCC® TIB-214™) are cytotoxic T lymphocytes that were purchased and cultured according to ATCC protocol. […] The maximum volume added to the 1 mL of each of the 12 wells was 10 μL for the highest test concentration of mebenzadole and the control.

Which “effect on T-lymphocytes (FIG. 1)” value (CTLL-2 cell culture, 1 nM to 1 μM) does the source give for `COC(=O)Nc1nc2ccc(C(=O)c3ccccc3)cc2[nH]1` [mebendazole, methyl 5-benzoylbenzimidazole-2-carbamate] here?
Its value is “dose dependently kill T-lymphocytes”.

What about the “test concentration at which significant reduction of T-lymphocytes starts” value (CTLL-2 cell culture, mebendazole in DMSO, 1 nM, 5 nM, 500 nM and 1 μM tested vs DMSO control) of the same compound?
Its value is 1 nM.

What about the “concentration at which significant reduction of CD+8 T cells starts, as mass concentration” value (in DMSO, equivalent given for 1 nM) of the same compound?
The value was 0.295 μg per mL.
